Results on one molecule are retold here after ChEMBL document CHEMBL3351929, “Halenaquinone inhibits RANKL-induced osteoclastogenesis” (Bioorg Med Chem Lett, 2014).

The structures appear in SMILES notation. Calls of active or inactive are those of the source. No cut-off for these calls is given here.

Test [1] is filed under the species Mus musculus. Kind of test: Inhibition of sRANKL-induced […] degradation in mouse RAW264 cells at 10 to 50 uM pre-treated for 2 hrs before sRANKL stimulation measured 15 mins after sRANKL stimulation by Western blotting method. The class given is cell-based. On the technique in general: In western blotting, separated proteins are transferred to a membrane and probed.

Test [2] relates to RAW264. Kind of test: Inhibition of sRANKL-induced TRAP activity in mouse RAW264 cells at 20 uM by p-nitrophenolate release based TRAP assay. The class given is functional, cell-based.
The test system of test [3] is RAW264. Kind of test: Inhibition of sRANKL-induced osteoclastogenesis in mouse RAW264 cells assessed as reduction in TRAP-positive multinuclear osteoclasts formation at 20 uM incubated for 4 days by TRAP assay. The class given is functional, cell-based.
Test [4] is described as follows: Inhibition of chymotrypsin-like activity of proteasome in rat liver using Suc-Leu-Leu-Val-Tyr-MCA fluorogenic substrate.
Test [5] can be described thus: Inhibition of sRANKL-induced TRAP activity in mouse RAW264 cells by p-nitrophenolate release based TRAP assay. It is filed as functional, cell-based. The following applies: RAW264.7.
Test [6] is filed under the species Mus musculus. Kind of test: Inhibition of sRANKL-induced […] degradation in mouse RAW264 cells at 20 uM pre-treated for 2 hrs before sRANKL stimulation measured 15 mins after sRANKL stimulation by Western blotting method. It is filed as cell-based.
Test [7] is filed under the species Mus musculus. Kind of test: Inhibition of sRANKL-induced AKT phosphorylation in mouse RAW264 cells at 20 uM pre-treated for 2 hrs before sRANKL stimulation measured 15 mins after sRANKL stimulation by Western blotting method. It is filed as cell-based.

The term IC50 denotes the point on the concentration scale where inhibition reaches its midpoint. High values mean a need for much substance, low ones inhibition by little substance. For `C[C@@]12CCC(=O)c3coc(c31)C(=O)c1cc3c(cc12)C(=O)C=CC3=O` [HELENAQUINONE], the inhibition result in the test listed under Mus musculus [1], in the test with RAW264 [2], in the test on RAW264 [3], in the test filed under Mus musculus [6] and in the test filed under Mus musculus [7] was “Active” each time. The IC50 stood at 600 nM in test [4] and 2000 nM in test [5].
